In ChEMBL document CHEMBL5150064 (J Med Chem, 2022):
Values after ≈ are worked out from the molar mass of the structure shown. Active and inactive are the calls of the source. The calls are words filed in the database; no cut-off is given here.

Legend:
Mus musculus [1] = assay: In vivo inhibition of PI3K in human HCC1954 cells xenografted in po dosed mouse; type: functional, organism-based; conditions: DDE = dose-dependent effect
Cytochrome P450 2C9 = Cytochrome P450 2C9 (Homo sapiens, UniProt P11712); assay: Inhibition of CYP2C9 (unknown origin); type: ADME
HCC1954 [2] = assay: Antitumor activity against human HCC1954 cells xenografted in mouse assessed as tumor growth inhibition at 25 mg/kg, po QD; type: functional; conditions: read-out: TGI
[3] = Oral bioavailability in Sprague-Dawley rat plasma at 5 mg/kg measured upto 8 hrs by LC-MS/MS method; type: ADME, organism-based
[4] = Antiproliferative activity against human KPL-4 cells assessed as reduction in cell viability incubated for 4 days by Celltiter-Glo luminescence assay; type: functional, cell-based; conditions: KPL4, 96 h
Homo sapiens = species: Homo sapiens; assay: Inhibition of PI3KC2b (unknown origin) at 1 uM relative to control
Mus musculus [5] = assay: In vivo inhibition of PI3K in human HCC1954 cells xenografted in mouse at 50 mg/kg, po; type: functional, organism-based; conditions: TDE = time-dependent effect
[6] = Clearance in Sprague-Dawley rat plasma at 1 mg/kg, iv measured upto 8 hrs by LC-MS/MS analysis; type: ADME, organism-based
Cytochrome P450 2D6 = Cytochrome P450 2D6 (Homo sapiens, UniProt P10635); assay: Inhibition of CYP2D6 (unknown origin); type: ADME
Cytochrome P450 2C8 = target: T1, Cytochrome P450 2C8 (Homo sapiens, UniProt P10632); assay: Inhibition of CYP2C8 (unknown origin); type: ADME
T1 sequence (P10632 whole entry): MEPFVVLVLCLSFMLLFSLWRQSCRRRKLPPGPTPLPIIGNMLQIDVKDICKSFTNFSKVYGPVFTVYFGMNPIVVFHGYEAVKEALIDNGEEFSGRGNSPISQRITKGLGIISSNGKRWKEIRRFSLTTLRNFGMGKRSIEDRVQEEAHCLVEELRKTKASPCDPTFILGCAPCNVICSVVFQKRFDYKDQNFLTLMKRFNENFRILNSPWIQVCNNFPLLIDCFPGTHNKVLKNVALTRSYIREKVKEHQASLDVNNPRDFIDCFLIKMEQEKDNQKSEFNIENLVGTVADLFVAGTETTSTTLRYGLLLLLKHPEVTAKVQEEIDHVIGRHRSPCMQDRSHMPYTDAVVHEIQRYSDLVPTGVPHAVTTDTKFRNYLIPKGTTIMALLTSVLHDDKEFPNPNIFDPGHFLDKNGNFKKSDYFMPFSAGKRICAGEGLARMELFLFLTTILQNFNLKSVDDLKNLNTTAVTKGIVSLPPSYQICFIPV

CaV1.2 = CaV1.2 (Homo sapiens, UniProt Q13936); assay: Inhibition of human CaV1.2 at 10 uM relative to control
[7] = Dissociation constant, pKa of the compound; type: physicochemical
[8] = Inhibition of PI3KC2b (unknown origin); parameters: species or system Homo sapiens
HCC1954 [9] = assay: Antitumor activity against human HCC1954 cells xenografted in mouse assessed as increase in cleaved PARP level at 50 mg/kg, po; type: functional, organism-based
hERG (KCNH2) = hERG (KCNH2) (Homo sapiens, UniProt Q12809); assay: Inhibition of human ERG at 10 uM relative to control; type: toxicity
Cytochrome P450 3A4 = Cytochrome P450 3A4 (Homo sapiens, UniProt P08684); assay: Inhibition of CYP3A4 (unknown origin); type: ADME
[10] = Thermodynamic solubility of the compound in FaSSGF; type: physicochemical; conditions: read-out: Therm_solubility
HCC1954 [11] = assay: Antitumor activity against human HCC1954 cells xenografted in mouse assessed as tumor growth inhibition at 50 mg/kg, po QD; type: functional; conditions: read-out: TGI
[12] = test system: Phosphatidylinositol 4,5-bisphosphate 3-kinase catalytic subunit alpha isoform (Homo sapiens), P42336 [H1047R]; assay: Induction of P110alpha H1047R mutant degradation in human HCC1954 cells at 0.012 to 1 uM after 24 hrs; type: cell-based; conditions: dose 0.012-1 µM
Cytochrome P450 1A2 = target: T2, Cytochrome P450 1A2 (Homo sapiens, UniProt P05177); assay: Inhibition of CYP1A2 (unknown origin); type: ADME
T2 sequence (P05177 whole entry): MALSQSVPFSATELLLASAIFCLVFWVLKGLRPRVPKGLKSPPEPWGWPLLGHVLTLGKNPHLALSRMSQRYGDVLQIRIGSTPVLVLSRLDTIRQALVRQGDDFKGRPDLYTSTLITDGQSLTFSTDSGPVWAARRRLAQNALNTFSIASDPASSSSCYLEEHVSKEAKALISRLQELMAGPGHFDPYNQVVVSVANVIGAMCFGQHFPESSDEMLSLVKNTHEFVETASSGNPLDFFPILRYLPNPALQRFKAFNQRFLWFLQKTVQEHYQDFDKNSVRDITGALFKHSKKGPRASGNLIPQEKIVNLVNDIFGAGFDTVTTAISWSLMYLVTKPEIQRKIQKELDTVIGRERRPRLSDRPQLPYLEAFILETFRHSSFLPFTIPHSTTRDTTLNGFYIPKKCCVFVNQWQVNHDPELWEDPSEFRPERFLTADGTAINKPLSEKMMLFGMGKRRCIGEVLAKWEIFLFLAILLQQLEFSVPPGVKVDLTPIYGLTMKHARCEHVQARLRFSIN

Mus musculus [13] = assay: In vivo PI3K degradation in human HCC1954 cells xenografted in mouse at 50 mg/kg, po; type: functional, organism-based
[14] = Plasma protein binding in rat assessed as unbound fraction at 5 uM incubated for 4 hrs by equllibrium dialysis method; type: ADME, cell-free
[15] = Plasma protein binding in human assessed as unbound fraction at 5 uM incubated for 4 hrs by equllibrium dialysis method; type: ADME, cell-free
NaV1.5 = NaV1.5 (Homo sapiens, UniProt Q14524); assay: Inhibition of human NaV1.5 at 10 uM relative to control
[16] = Oral bioavailability in NCR nude mouse at 50 mg/kg measured upto 8 hrs by LC-MS/MS analysis; type: ADME, organism-based; conditions: in vivo
MCF7 = assay: Antiproliferative activity against human MCF7 cells assessed as reduction in cell viability incubated for 4 days by Celltiter-Glo luminescence assay; type: functional, cell-based; conditions: MCF7, 96 h
[17] = Thermodynamic aqueous solubility of the compound at pH 2; type: physicochemical; conditions: read-out: Therm_solubility
[18] = target: Phosphatidylinositol 4,5-bisphosphate 3-kinase catalytic subunit alpha isoform (Homo sapiens, UniProt P42336, H1047R)
[19] = Thermodynamic solubility of the compound in FaSSIF; type: physicochemical; conditions: read-out: Therm_solubility
[20] = Clearance in SCID-Beige mouse plasma at 1 mg/kg, iv measured upto 24 hrs by LC-MS/MS analysis; type: ADME, organism-based
[21] = AUC in NCR nude mouse at 50 mg/kg, po measured upto 8 hrs by LC-MS/MS analysis; type: ADME, organism-based; parameters: dose 50 mg/kg, time < 8 hrs, route po; conditions: in vivo
[22] = Plasma protein binding in mouse assessed as unbound fraction at 5 uM incubated for 4 hrs by equllibrium dialysis method; type: ADME, cell-free
[23] = Thermodynamic aqueous solubility of the compound at pH 7.4; type: physicochemical; conditions: read-out: Therm_solubility
Cytochrome P450 2C19 = Cytochrome P450 2C19 (Homo sapiens, UniProt P33261); assay: Inhibition of CYP2C19 (unknown origin); type: ADME
Sequence of Cytochrome P450 2C19 (P33261 whole entry): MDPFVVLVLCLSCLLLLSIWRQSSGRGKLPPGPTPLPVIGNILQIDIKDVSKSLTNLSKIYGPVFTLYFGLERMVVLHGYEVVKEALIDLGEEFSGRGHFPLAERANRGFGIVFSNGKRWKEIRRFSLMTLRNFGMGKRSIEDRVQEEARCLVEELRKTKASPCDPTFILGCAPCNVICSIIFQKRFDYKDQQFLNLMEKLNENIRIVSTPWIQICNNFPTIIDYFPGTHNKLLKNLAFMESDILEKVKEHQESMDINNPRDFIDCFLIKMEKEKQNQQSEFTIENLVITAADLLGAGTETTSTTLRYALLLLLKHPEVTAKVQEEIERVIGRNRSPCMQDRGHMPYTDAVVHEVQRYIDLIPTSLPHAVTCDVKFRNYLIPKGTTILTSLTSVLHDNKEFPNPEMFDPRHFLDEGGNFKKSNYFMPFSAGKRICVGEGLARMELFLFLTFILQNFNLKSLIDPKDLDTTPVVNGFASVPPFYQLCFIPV

Sequence of Phosphatidylinositol 4,5-bisphosphate 3-kinase catalytic subunit alpha isoform (P42336 whole entry H1047R, canonical isoform): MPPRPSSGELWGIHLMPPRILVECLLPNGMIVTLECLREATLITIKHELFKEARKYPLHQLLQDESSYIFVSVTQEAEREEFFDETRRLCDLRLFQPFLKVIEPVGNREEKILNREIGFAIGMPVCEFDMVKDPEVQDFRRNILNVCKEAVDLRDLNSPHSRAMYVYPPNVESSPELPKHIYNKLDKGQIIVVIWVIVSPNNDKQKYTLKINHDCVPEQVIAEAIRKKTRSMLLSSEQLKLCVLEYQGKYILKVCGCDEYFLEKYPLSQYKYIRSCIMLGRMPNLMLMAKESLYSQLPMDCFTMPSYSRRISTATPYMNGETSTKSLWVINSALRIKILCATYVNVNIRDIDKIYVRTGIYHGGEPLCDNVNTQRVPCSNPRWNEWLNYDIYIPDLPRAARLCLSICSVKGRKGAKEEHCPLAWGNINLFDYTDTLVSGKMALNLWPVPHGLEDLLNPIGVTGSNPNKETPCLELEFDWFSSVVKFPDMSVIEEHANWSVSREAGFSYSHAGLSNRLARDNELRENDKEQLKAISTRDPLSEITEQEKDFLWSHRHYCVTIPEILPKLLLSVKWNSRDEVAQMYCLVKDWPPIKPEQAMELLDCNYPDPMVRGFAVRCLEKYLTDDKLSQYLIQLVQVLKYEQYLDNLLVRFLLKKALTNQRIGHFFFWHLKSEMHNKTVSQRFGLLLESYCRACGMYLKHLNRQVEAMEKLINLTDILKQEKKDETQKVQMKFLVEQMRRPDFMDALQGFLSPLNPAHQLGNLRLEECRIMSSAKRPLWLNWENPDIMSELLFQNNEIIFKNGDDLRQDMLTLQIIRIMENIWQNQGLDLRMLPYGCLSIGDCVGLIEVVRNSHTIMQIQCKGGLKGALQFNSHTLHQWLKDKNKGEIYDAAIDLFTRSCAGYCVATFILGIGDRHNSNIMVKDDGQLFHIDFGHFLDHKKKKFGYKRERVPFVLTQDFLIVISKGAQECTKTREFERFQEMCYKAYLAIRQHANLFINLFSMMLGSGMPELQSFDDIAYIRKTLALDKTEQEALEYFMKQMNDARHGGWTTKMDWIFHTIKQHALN
Sequence of Phosphatidylinositol 4,5-bisphosphate 3-kinase catalytic subunit alpha isoform (Homo sapiens), P42336 [H1047R] (P42336 whole entry H1047R, canonical isoform): as above
Sequence of Cytochrome P450 2D6 (P10635 whole entry): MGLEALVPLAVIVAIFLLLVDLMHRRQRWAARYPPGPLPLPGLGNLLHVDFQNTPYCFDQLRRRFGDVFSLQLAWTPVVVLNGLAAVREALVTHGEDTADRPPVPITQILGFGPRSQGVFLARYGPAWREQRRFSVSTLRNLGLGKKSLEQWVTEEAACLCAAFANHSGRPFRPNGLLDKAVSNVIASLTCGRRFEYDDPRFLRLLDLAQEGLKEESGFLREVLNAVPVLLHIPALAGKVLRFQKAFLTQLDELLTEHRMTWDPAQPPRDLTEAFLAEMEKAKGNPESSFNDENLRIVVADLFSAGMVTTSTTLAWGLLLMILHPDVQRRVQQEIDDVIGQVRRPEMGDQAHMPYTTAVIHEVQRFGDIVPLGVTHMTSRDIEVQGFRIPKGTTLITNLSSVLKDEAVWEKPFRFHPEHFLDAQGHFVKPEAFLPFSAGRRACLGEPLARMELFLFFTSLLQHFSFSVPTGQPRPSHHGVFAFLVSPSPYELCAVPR
Sequence of CaV1.2 (Q13936 whole entry): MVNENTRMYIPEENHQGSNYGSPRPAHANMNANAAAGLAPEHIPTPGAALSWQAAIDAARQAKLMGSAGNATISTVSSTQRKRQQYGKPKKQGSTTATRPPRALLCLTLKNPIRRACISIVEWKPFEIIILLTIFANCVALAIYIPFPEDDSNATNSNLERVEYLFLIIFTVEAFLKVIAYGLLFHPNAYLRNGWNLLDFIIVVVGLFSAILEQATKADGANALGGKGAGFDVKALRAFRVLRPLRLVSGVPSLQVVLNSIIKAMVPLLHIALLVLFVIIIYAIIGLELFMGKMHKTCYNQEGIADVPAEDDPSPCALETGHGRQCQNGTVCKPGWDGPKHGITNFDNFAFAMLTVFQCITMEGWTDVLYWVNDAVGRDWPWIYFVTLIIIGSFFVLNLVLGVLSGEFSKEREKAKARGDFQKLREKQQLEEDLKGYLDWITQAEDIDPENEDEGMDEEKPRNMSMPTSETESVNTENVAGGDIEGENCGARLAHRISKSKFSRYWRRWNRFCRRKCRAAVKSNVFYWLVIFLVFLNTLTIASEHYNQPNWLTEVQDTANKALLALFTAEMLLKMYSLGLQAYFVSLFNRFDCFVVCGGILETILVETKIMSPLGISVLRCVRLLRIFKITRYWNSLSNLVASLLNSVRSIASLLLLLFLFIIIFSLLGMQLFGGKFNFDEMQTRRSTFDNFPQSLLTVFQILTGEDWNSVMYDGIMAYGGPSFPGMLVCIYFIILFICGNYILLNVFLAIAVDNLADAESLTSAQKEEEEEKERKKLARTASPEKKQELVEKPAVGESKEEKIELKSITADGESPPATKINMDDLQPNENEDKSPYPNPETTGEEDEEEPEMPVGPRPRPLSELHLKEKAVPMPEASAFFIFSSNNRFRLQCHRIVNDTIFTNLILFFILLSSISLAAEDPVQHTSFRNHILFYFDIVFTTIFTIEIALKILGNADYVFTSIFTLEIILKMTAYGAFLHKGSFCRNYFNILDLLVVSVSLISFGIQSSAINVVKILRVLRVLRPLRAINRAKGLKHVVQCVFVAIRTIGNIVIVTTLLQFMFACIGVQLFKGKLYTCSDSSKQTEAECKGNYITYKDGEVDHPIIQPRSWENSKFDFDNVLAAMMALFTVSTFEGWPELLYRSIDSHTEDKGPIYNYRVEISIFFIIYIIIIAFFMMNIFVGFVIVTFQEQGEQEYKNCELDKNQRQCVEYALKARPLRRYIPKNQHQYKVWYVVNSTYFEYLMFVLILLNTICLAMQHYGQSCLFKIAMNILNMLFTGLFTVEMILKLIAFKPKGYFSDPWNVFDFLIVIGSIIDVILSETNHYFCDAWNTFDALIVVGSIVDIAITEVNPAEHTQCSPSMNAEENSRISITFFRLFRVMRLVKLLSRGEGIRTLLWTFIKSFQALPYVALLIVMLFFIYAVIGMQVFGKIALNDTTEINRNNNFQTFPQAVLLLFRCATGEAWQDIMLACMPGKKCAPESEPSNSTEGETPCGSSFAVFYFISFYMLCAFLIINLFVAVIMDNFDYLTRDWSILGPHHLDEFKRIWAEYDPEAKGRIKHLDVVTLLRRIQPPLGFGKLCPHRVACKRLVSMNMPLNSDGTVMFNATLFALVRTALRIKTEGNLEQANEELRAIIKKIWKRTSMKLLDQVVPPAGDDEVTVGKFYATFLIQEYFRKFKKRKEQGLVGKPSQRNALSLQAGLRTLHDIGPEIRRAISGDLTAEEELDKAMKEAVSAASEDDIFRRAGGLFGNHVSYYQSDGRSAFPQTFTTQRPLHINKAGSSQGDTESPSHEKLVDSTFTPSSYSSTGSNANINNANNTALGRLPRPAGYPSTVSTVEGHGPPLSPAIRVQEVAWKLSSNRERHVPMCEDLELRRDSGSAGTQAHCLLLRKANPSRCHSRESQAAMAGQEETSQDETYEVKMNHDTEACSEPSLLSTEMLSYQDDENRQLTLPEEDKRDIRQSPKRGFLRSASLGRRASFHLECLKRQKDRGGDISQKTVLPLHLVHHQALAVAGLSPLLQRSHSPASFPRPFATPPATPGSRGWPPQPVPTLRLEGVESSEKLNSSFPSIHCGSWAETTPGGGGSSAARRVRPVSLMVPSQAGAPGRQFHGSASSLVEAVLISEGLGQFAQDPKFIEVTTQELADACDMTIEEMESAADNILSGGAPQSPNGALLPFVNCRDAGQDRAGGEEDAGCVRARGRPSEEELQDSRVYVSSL
Sequence of Cytochrome P450 3A4 (P08684 whole entry): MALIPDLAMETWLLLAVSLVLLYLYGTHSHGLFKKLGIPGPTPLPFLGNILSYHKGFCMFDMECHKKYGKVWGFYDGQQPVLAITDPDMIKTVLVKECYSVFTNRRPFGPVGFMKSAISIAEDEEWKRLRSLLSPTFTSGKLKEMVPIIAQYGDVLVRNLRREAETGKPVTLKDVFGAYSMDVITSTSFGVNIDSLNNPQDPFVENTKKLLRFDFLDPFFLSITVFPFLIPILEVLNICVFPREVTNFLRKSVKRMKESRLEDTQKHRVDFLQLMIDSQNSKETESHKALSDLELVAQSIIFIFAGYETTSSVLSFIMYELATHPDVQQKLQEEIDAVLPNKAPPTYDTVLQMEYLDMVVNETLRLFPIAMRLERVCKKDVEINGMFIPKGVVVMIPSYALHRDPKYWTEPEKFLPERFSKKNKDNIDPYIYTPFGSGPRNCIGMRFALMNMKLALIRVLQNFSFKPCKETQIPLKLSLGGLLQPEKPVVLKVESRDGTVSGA

- IC50 (Cytochrome P450 2C9): > 10 µM
- bioavailability [3]: 58%
- inhibition (Homo sapiens): > 80%
- clearance [6]: 86 mL/min/kg
- IC50 (Cytochrome P450 2D6): > 10 µM
- IC50 (Cytochrome P450 2C8): > 10 µM
- pKa [7]: 3.3
- IC50 [8]: 0.056 µM
- IC50 (Cytochrome P450 3A4): > 10 µM
- solubility thermodynamic [10]: 1600 µg/mL (≈ 3930 µM)
- Activity [12]: Active
- IC50 (Cytochrome P450 1A2): > 10 µM
- fraction unbound at 4 h, 5 µM [14]: 0.608
- fraction unbound at 4 h, 5 µM [15]: 0.589
- bioavailability [16]: 59%
- EC50 (MCF7): 0.03 µM
- solubility thermodynamic [17]: 615 µg/mL (≈ 1510 µM)
- EC50 [18]: 0.019 µM
- solubility thermodynamic [19]: 36 µg/mL (≈ 88.4 µM)
- clearance [20]: 37 mL/min/kg
- AUC at 8 h [21]: 32.9 µM·h
- fraction unbound at 4 h, 5 µM [22]: 0.261
- solubility thermodynamic [23]: 38 µg/mL (≈ 93.3 µM)
- IC50 (Cytochrome P450 2C19): > 10 µM
SMILES: C[C@H](Nc1ccc2c(c1)OCCn1cc(N3C(=O)OC[C@H]3C(F)F)nc1-2)C(N)=O [INAVOLISIB]
- inhibition (Mus musculus [1]): Dde
- inhibition in vivo at 25 mg/kg (HCC1954 [2]): 140%
- EC50 [4]: 0.01 µM
- inhibition (Mus musculus [5]): Tde
- inhibition at 10 µM (CaV1.2): < 20%
- Activity (HCC1954 [9]): Active
- inhibition at 10 µM (hERG (KCNH2)): < 20%
- inhibition in vivo at 50 mg/kg (HCC1954 [11]): 149%
- inhibition (Mus musculus [13]): Active
- inhibition at 10 µM (NaV1.5): < 20%
